The target in one experiment is Melanocortin receptor 5 (Homo sapiens, UniProt P33032). The experiment can be described thus: Displacement of [125I]NDP-MSH from human recombinant MC5 receptor expressed in Sf9 cells.
Experiment [1] concerns the target Melanocyte-stimulating hormone receptor (Mus musculus, UniProt Q01727). The experiment can be described thus: Displacement of [125I]NDP-MSH from MC1 receptor in mouse B16 cells. The class given is cell-based. For orientation: Displacement assays read how much labelled ligand stays bound in the presence of the test substance.
A further experiment deals with Melanocortin receptor 4 (Homo sapiens, UniProt P32245). Put plainly: Displacement of [125I]NDP-MSH from human recombinant MC4 receptor expressed in Sf9 cells.
The target in a further experiment is Melanocortin receptor 3 (Homo sapiens, UniProt P41968). The experiment can be described thus: Displacement of [125I]NDP-MSH from human recombinant MC3 receptor expressed in Sf9 cells.

The structures appear in SMILES notation.

Chain of Melanocortin receptor 5 (P33032 whole entry): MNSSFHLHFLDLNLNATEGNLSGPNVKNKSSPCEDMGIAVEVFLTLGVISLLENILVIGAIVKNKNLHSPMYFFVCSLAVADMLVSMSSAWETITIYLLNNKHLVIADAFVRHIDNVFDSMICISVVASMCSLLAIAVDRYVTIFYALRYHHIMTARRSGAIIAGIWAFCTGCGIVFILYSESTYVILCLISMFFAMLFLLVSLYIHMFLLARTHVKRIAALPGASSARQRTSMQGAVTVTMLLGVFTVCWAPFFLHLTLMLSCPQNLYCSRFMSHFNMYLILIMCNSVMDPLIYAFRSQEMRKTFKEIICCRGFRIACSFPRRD
Chain of Melanocortin receptor 3 (P41968 whole entry): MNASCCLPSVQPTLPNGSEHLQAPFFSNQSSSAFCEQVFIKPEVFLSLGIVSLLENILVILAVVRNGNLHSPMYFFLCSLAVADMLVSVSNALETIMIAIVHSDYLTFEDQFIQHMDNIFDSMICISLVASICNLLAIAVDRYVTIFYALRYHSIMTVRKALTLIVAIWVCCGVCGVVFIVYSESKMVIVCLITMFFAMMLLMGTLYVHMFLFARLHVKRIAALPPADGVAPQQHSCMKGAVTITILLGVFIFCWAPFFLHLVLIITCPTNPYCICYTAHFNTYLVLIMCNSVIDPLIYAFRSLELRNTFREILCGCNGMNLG
Chain of Melanocortin receptor 4 (P32245 whole entry): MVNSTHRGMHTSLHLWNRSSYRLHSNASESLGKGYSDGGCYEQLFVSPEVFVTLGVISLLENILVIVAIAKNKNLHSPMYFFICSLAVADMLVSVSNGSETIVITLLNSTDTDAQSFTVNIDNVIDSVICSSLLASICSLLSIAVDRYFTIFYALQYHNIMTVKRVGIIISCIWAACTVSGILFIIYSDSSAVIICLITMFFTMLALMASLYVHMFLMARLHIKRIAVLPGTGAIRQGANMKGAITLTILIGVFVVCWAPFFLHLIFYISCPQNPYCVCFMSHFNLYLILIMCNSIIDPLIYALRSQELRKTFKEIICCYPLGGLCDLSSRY
Chain of Melanocyte-stimulating hormone receptor (Q01727 whole entry): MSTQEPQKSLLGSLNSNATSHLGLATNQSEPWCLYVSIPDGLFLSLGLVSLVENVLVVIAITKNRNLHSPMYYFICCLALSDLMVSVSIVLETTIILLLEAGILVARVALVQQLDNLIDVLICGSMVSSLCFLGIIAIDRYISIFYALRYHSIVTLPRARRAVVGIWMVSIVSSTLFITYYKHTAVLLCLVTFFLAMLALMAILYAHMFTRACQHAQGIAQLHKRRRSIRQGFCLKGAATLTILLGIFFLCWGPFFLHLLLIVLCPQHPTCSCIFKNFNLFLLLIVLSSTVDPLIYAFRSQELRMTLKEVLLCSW

`Cc1cccc(CN(C(=O)CCCc2c(Cc3ccc(O)cc3)[nH]c3ccccc23)C2CCC(CC3CCC(N)CC3)CC2)c1` (stereo not given): the Ki (commonly the dissociation constant of the complex between target and ligand, obtained from inhibition or displacement) on Melanocortin receptor 5 stood at 16 µM; in experiment [1], 2.9 µM; on Melanocortin receptor 4, 3.4 µM; on Melanocortin receptor 3, 78 µM.

`NC1CCC(CC2CCC(N(C/C(Cl)=C/c3ccccc3)C(=O)COc3ccc4ccccc4c3)CC2)CC1` (stereo in doubt; form 5): the Ki at Melanocortin receptor 5 came out at 6.7 µM; in experiment [1], 1.9 µM; at Melanocortin receptor 4, 3.5 µM; at Melanocortin receptor 3, 22 µM.

In the case of `NCCCN(CCc1ccccc1)C(=O)CCCc1c[nH]c2ccccc12`, the inhibitory constant (Ki) at Melanocortin receptor 5 came to 33 µM; in experiment [1], 21 µM; on Melanocortin receptor 4, 164 µM; on Melanocortin receptor 3, 30 µM.

For the molecule `CC1CC(CC2CCC(N(Cc3ccccc3)C(=O)CCCc3c[nH]c4ccccc34)C(C)C2)CCC1N` (stereo in doubt; form 5), the Ki at Melanocortin receptor 5 came out at 5 µM; in experiment [1], 1.3 µM; at Melanocortin receptor 4, 2.1 µM; at Melanocortin receptor 3, 31 µM.

On to `NC1CCC(CC2CCC(N(Cc3ccccc3)C(=O)CCCc3c[nH]c4ccccc34)CC2)CC1` (stereo in doubt; 10d-40-8), for which the Ki came out at 18 µM on Melanocortin receptor 5, 0.42 µM in experiment [1], 8.3 µM on Melanocortin receptor 4 and 9.4 µM on Melanocortin receptor 3.

For the molecule `N=C(N)NCCN(Cc1ccc2ccccc2c1)C(=O)CCCc1c[nH]c2ccccc12`, the Ki worked out at 8.3 µM at Melanocortin receptor 5, 8.3 µM in experiment [1], 179 µM on Melanocortin receptor 4 and 204 µM at Melanocortin receptor 3.

For the molecule `NC1CCC(CC2CCC(N(CCc3c(F)cccc3Cl)C(=O)CCCc3c[nH]c4ccccc34)CC2)CC1` (stereo not given), the Ki on Melanocortin receptor 5 amounted to 5.2 µM; in experiment [1], 2.1 µM; on Melanocortin receptor 4, 2.3 µM; on Melanocortin receptor 3 it was 24 µM.

With `NCCCN1CCN(CCCN(C/C(Cl)=C/c2ccccc2)C(=O)CCCc2c[nH]c3ccccc23)CC1`, the Ki at Melanocortin receptor 5 was found to be 6.6 µM; in experiment [1] it was 4.6 µM; at Melanocortin receptor 4 it was 9.2 µM; on Melanocortin receptor 3, 78 µM.

`C/C(=C\c1ccccc1)CN(CCCN)C(=O)c1c[nH]c2ccccc12`: the Ki was 0.93 µM on Melanocortin receptor 5, 0.85 µM in experiment [1], 7.4 µM on Melanocortin receptor 4 and 24 µM on Melanocortin receptor 3.

Consider `NCCCCCN(Cc1ccccc1)C(=O)[C@H](N)Cc1ccc([N+](=O)[O-])cc1`, for which the Ki on Melanocortin receptor 5 stood at 102 µM; in experiment [1], 37 µM; at Melanocortin receptor 4 it was 96 µM; at Melanocortin receptor 3, 162 µM.

As for `COc1ccc(CN(C(=O)CCCc2c(Cc3ccc(O)cc3)[nH]c3ccccc23)C2CCC(CC3CCC(N)CC3)CC2)cc1Br` (stereo not given), the Ki worked out at 23 µM at Melanocortin receptor 5, 2.6 µM in experiment [1], 2.5 µM on Melanocortin receptor 4 and 132 µM at Melanocortin receptor 3.

Turning to `NCCCCCN(Cc1ccccc1)C(=O)[C@H](N)Cc1c[nH]c2ccccc12`, the Ki was 159 µM on Melanocortin receptor 5, 32 µM in experiment [1], 87 µM on Melanocortin receptor 4 and 106 µM at Melanocortin receptor 3.

In the case of `NCCCCCN(C(=O)CCCc1c[nH]c2ccccc12)C1C2CC3CC(C2)CC1C3` (stereo not given), the Ki on Melanocortin receptor 5 was 46 µM; in experiment [1], 6.1 µM; on Melanocortin receptor 4, 14 µM; on Melanocortin receptor 3 it was 25 µM.

As to `NCCCCCN(C(=O)COc1ccc2ccccc2c1)C1CCC2(CC=CCC2)CC1` (stereo not given), the Ki on Melanocortin receptor 5 stood at 8 µM; in experiment [1], 7.4 µM; at Melanocortin receptor 4, 5.9 µM; at Melanocortin receptor 3, 3.7 µM.

`COc1cc(O)ccc1/C=C/CN(C(=O)CCCc1c[nH]c2ccccc12)C1CCC(CC2CCC(N)CC2)CC1` (stereo in doubt; form 1): the Ki at Melanocortin receptor 5 stood at 7.6 µM; in experiment [1] it was 2.9 µM; at Melanocortin receptor 4, 6.4 µM; on Melanocortin receptor 3 it was 37 µM.

Turning to `NCCCCN(Cc1ccccc1)C(=O)CCCc1c[nH]c2ccccc12`, the Ki on Melanocortin receptor 5 was 20 µM; in experiment [1] it was 12 µM; at Melanocortin receptor 4, 17 µM; at Melanocortin receptor 3 it was 38 µM.

Turning to `CSc1ccc(CN(C(=O)CCCc2c[nH]c3ccccc23)C2CCC(CC3CCC(N)CC3)CC2)cc1` (stereo not given), the Ki at Melanocortin receptor 5 is 85 µM; in experiment [1], 3.2 µM; on Melanocortin receptor 4 it was 4.3 µM; at Melanocortin receptor 3, 249 µM.

In the case of `NCCCCN(Cc1ccc2ccccc2c1)C(=O)c1c[nH]c2ccccc12`, the Ki was found to be 18 µM on Melanocortin receptor 5, 1.7 µM in experiment [1], 6.4 µM on Melanocortin receptor 4 and 19 µM on Melanocortin receptor 3.

`CC(c1ccc2ccccc2c1)N(CCN)C(=O)Cc1c[nH]c2ccccc12` (stereo not given): the Ki was 19 µM at Melanocortin receptor 5, 4.4 µM in experiment [1], 11 µM on Melanocortin receptor 4 and 11 µM on Melanocortin receptor 3.

Turning to `NCC1CCC(CN(Cc2ccccc2)C(=O)CCCc2c[nH]c3ccccc23)CC1` (stereo not given), the Ki on Melanocortin receptor 5 was 18 µM; in experiment [1], 2.5 µM; on Melanocortin receptor 4, 4.4 µM; at Melanocortin receptor 3, 27 µM.

Consider `CCN(CC)c1ccc(CN(CCCCCN)C(=O)CCCc2c[nH]c3ccccc23)cc1`, for which the Ki at Melanocortin receptor 5 turned out to be 34 µM; in experiment [1], 6.8 µM; on Melanocortin receptor 4, 25 µM; on Melanocortin receptor 3, 33 µM.

Consider `C=C(Br)CN(C(=O)CCCc1c[nH]c2ccccc12)C1CCC(CC2CCC(N)CC2)CC1` (stereo in doubt; form 3), for which the Ki on Melanocortin receptor 5 was 7.8 µM; in experiment [1] it was 1 µM; at Melanocortin receptor 4, 3.3 µM; at Melanocortin receptor 3, 21 µM.

With `NCCCCCN(Cc1ccc2ccccc2c1)C(=O)Cc1c[nH]c2ccccc12`, the Ki on Melanocortin receptor 5 worked out at 5.2 µM; in experiment [1], 1.5 µM; at Melanocortin receptor 4, 13 µM; at Melanocortin receptor 3, 50 µM.

For the molecule `NC1CCC(CC2CCC(N(Cc3ccccc3F)C(=O)CCCc3c(Cc4ccc(O)cc4)[nH]c4ccccc34)CC2)CC1` (stereo not given), the Ki on Melanocortin receptor 5 was determined as 36 µM; in experiment [1] it was 1 µM; on Melanocortin receptor 4, 1.5 µM; at Melanocortin receptor 3 it was 55 µM.

Turning to `CC(c1csc2ccccc12)N(CCCN)C(=O)CCCc1c[nH]c2ccccc12` (stereo not given), the Ki on Melanocortin receptor 5 came out at 55 µM; in experiment [1] it was 7.4 µM; at Melanocortin receptor 4 it was 9.8 µM; on Melanocortin receptor 3, 104 µM.

For `COc1cc(Br)c(CN(C(=O)CCCc2c[nH]c3ccccc23)[C@H]2CC[C@@H](C[C@H]3CC[C@@H](N)CC3)CC2)cc1OC`, the Ki on Melanocortin receptor 5 turned out to be 6.9 µM; in experiment [1], 2.3 µM; at Melanocortin receptor 4, 7.8 µM; on Melanocortin receptor 3 it was 8.1 µM.

As for `N#Cc1ccc(CN(C(=O)CCCc2c[nH]c3ccccc23)C2CCC(CC3CCC(N)CC3)CC2)cc1` (stereo in doubt; form 2), the Ki worked out at 3.9 µM at Melanocortin receptor 5, 1.5 µM in experiment [1], 1.6 µM on Melanocortin receptor 4 and 20 µM at Melanocortin receptor 3.

Take `COc1cc(Br)c(/C=C/CN(C(=O)CCCc2c(Cc3ccc(O)cc3)[nH]c3ccccc23)C2CCC(CC3CCC(N)CC3)CC2)cc1OC` (stereo not given): the Ki at Melanocortin receptor 5 turned out to be 18 µM; in experiment [1], 0.94 µM; on Melanocortin receptor 4, 1.3 µM; at Melanocortin receptor 3, 94 µM.

On to `NC(N)=NCCCN(Cc1ccc2ccccc2c1)C(=O)CCCc1c[nH]c2ccccc12`, for which the Ki at Melanocortin receptor 5 is 6.1 µM; in experiment [1] it was 1.9 µM; on Melanocortin receptor 4, 6 µM; at Melanocortin receptor 3, 7.5 µM.

Take `NCCCN(Cc1ccc2ccccc2c1)C(=O)CCCc1c[nH]c2ccccc12`: the Ki at Melanocortin receptor 5 turned out to be 23 µM; in experiment [1], 3.7 µM; at Melanocortin receptor 4, 19 µM; on Melanocortin receptor 3 it was 26 µM.
